Laboratory results taken from patent publication US10702526B2, “Inhibitors of immune checkpoint modulators and related methods” (eFFECTOR Therapeutics, Inc., priority 2015, dated 2020).

Legend:
[1] = test system: PD-1 expression on human Pan-T cells; assay: PD-1 expression on primary T cells activated with anti-CD3/anti-CD28 beads (flow cytometry); assay type: cell-based
Method: About 3×10^5 T cells were activated using anti-CD3/anti-CD28 magnetic beads as per manufacturer's protocol (Dynabeads®, Invitrogen, Carlsbad, Calif.). Briefly, a ratio of fresh primary T cells to beads used to activate the T cells was 1:1 (for every 80,000 T cells, 2 μl of beads were added). Test cells were treated simultaneously with various concentrations of MNK-specific inhibitor Compound 107 (0.01, 0.1, 1, 3 and 10 μM). After 48 hours, culture supernatants were harvested and examined via sandwich ELISA for the presence of IL-2 using human IL-2 ELISA DuoSet® (R&D Systems, Minneapolis, Minn.). […] After fixation, cells were washed twice with flow buffer and re-suspended in flow buffer and assessed for fluorescence using BD Accuri C6 cytometer. Data were analyzed using the C6 cytometer software (BD Biosciences, San Jose, Calif.).

[2] = test system: CT26 tumor; assay: CT26 tumor re-challenge of previously treated mice; assay type: in vivo, mouse
Method: Previously treated allograft mice that responded to therapy or were tumor-free from each treatment group (8 days post-treatment) were tested for development of long-term immune memory by re-implanting new CT26 tumors and assessing for tumor growth compared to naïve BALB/c mice. Briefly, treated mice were re-implanted and naïve were implanted for the first time with tumor cells in the left flank region in 0.1 ml of growth media and an equal 0.1 ml volume ratio of Matrigel® matrix (1:1 volume to volume ratio), as before. Tumors in these untreated mice were measured following implantation as described herein.

[3] = test system: PD-1 expression on Jurkat cells; assay: PD-1 expression on PHA/PMA-activated Jurkat T cells (flow cytometry); assay type: cell-based, human
Method: To examine the effect of MNK-specific inhibitors on PD-1 expression, Jurkat cells (Clone E6.1, ATCC, transformed T cells) were used, which express PD-1 when activated through T cell receptor (TCR) signaling. Briefly, Jurkat cells were grown in 1×RPMI with 1× Pen/Strep, and 10% FBS, then about 3×10^6 Jurkat cells were activated in presence of 1 μg/mL PHA (Sigma) and 50 ng/mL PMA (Sigma). Test Cells were treated simultaneously with various concentrations of MNK-specific inhibitor Compound 107 (0, 0.01, 0.1, 1, 3 and 10 μM). After 48 hours, culture supernatants were harvested and examined via sandwich ELISA for the presence of IL-2 using human IL-2 ELISA DuoSet® (R&D Systems, Minneapolis, Minn.). The level of PD-1 on Jurkat cells was examined by incubating cells with fixable dead cell stain (1:20,000; BD Biosciences, San Jose, Calif.) for 15 minutes at 4° C., washed twice with flow staining buffer (1×PBS, 4% FBS and 1 mM EDTA), incubated with human FcR block, then contacted with allophycocyanin (APC) conjugated anti-PD-1 antibody (Biolegend, San Diego, Calif.) for 30 minutes at 4° C., washed two times with flow buffer, and finally cells were fixed with fixation buffer for 20 minutes at 4° C. After fixation, cells were washed twice with flow buffer and re-suspended in flow buffer and assessed for fluorescence using BD Accuri C6 flow cytometer. Data were analyzed using the C6 cytometer software (BD Biosciences, San Jose, Calif.).

[4] = test system: CT26 (mouse colon carcinoma) tumor; assay: CT26 colon carcinoma allograft tumor model in BALB/c mice; assay type: in vivo
Method: To evaluate the efficacy of a MNK-specific inhibitor in cancer, an in vivo allograft tumor model was used. Briefly, CT26 (mouse colon carcinoma) cells grown in DMEM supplemented with 10% FBS were harvested during exponential growth and counted for tumor inoculation in immune competent BALB/c mice. Each mouse was inoculated with 0.3×10^6 CT26 tumor cells in the right flank region in a 0.2 ml volume comprising a 1:1 ratio (volume to volume) of cells in growth media (0.1 ml) and Matrigel® matrix (0.1 ml) (BD Biosciences, San Jose Calif.). Tumors were allowed to grow to 100-200 mm^3 prior to study initiation. Before beginning treatment, all animals were weighed and tumor volumes measured using a caliper. Since the tumor volume can affect the effectiveness of any given treatment, mice were randomly assigned into vehicle and test article treatment groups after tumors had reached a similar size. Each study group contained 8 mice, with each group receiving one of the following treatments: (1) Compound 107 in 10% 1-methyl-2-pyrrolidinone and 90% propylene glycol and given at a dose of 1 mg/kg orally, once a day; (2) anti-PD1 (BioXcell, Lebanon, N.H.) in PBS and given at a dose of 0.5 mg/mouse intraperitoneally, once every four days (as described by Wei et al., PLoS One 8:e84927, 2013); (3) a combination of Compound 107 at 1 mg/kg orally, once a day and anti-PD1 at 0.5 mg/mouse intraperitoneally, once every four days; (4) vehicle only control.
During the study, tumor size (for subcutaneous implants) was measured in length and width with a caliper twice a week. The tumor volume was calculated by the formula L×W×W/2 according to NCI standards. Tumor growth inhibition (TGI %) is an indication of anti-tumor effectiveness, which is expressed as follows: TGI (%)=100×(1−(ΔT/ΔC)). ΔT and ΔC were the change in mean tumor volume of the treated and control groups, relative to mean tumor volume at the start of treatment. All experiments continued until group mean tumor volume reached about 2000 to 2,500 mm^3 in size. […] Also, the body weight for each mouse was collected at least once prior to the study start, and twice a week during the study. Body weight change is an indication of tolerability, so percent body weight change is calculated as follows: body weight change (%)=100×(body weightend−body weightstart)/body weightstart. Mice were also observed daily for mortality, mobility, hunched posture, piloerection, or other signs of distress while dosing. If a mouse lost greater than 20% body weight due to toxicity, or the combination of toxicity and tumor burden, it was euthanized. If there was apparent toxicity, the mice were taken off treatment and clinical observation and body weight measurement were done daily.

[5] = 15 days after initiation of dosing
[6] = 22 days after initiation of dosing

SMILES: Cc1cc(Nc2cc(N)ncn2)c(=O)n2c1C(=O)NC21CCCCC1.Cl [Compound 107]
- maximum inhibition of PD-1 expression ([1]; T cells activated with anti-CD3/anti-CD28 beads, 10 μM, 48 hours): 76%
- PD-1 expression ([1]; primary T cells, anti-CD3/anti-CD28 beads, 0.01-10 μM): reduced in a dose dependent manner
- Mean Tumor Volume (mm^3) ± SEM ([2]; 8 days after tumor implant): 22.4 ± 4.5 mm^3
- Tumor Formation ([2]; animals with measurable tumor / group, no further drug treatment): 0/4
- % PD-1 + Inhibition ([3]; Jurkat T cell assay, MNK-specific inhibitors): +++ (+++ = 50-75%)
- PD-1 expression ([3]; Jurkat cells with PHA and PMA, 0.01, 0.1, 1, 3 and 10 μM): reduced in a dose dependent manner
- reduction in the expression of PD-1 as compared to control ([3]; PHA/PMA activated Jurkat T cells, highest concentration, 48 hours): ≤ 50%
- Mean Tumor Volume (mm^3) ± SEM [4, 5]: 522.3 ± 174.4; mm^3
- Tumor Growth Inhibition (% TGI) [4, 5]: about 34%
- Tumor Growth Inhibition (% TGI) ([4]; 15 days after initiation of dosing, listed as Cmpd 107): 34%
- Mean Tumor Volume (mm^3) ± SEM [4, 6]: 1260.8 ± 499.1 mm^3
- Tumor Growth Inhibition (% TGI) [4, 6]: about 55%
- Tumor Growth Inhibition (% TGI) ([4]; 22 days after initiation of dosing, listed as Cmpd 107): 54%
- Body Weight Change Average % ([4]; final day of study (day 22)): 13.9%
